11 compounds from patent publication US8946261B2, “Substituted 1, 2, 3, 4-tetrahydroquinolin-7-yl carbamates as acetylcholinesterase inhibitors for treatment of Alzheimer's disease” (priority 2011, dated 2015) can be followed below.

Where “and” joins values, the source holds several entries; their conditions need not be identical. Identical values can stand only once. Entries after “also recorded” stand apart in the source; their conditions may differ. Bounds are passed on as bounds.

The subject of one data set is Swiss albino male mice. The data set is described as follows: Gross behavioral study. The note with it: for cholinergic symptoms / side effects: upto 24 hrs of drug administration; for cholinergic symptoms: 25 mg/kg; for side effects: 50 mg/kg.
Data set [1] deals with T1, Acetylcholinesterase (AChE) (Mus musculus, UniProt P21836).
T1 construct: A 10% (w/v) homogenate of brain was prepared; from tissue; host or cells: whole brain of adult Swiss albino mice; supernatant (100,000 g) of the 1% Triton X-100 treated homogenate
T1 sequence (P21836 32-614): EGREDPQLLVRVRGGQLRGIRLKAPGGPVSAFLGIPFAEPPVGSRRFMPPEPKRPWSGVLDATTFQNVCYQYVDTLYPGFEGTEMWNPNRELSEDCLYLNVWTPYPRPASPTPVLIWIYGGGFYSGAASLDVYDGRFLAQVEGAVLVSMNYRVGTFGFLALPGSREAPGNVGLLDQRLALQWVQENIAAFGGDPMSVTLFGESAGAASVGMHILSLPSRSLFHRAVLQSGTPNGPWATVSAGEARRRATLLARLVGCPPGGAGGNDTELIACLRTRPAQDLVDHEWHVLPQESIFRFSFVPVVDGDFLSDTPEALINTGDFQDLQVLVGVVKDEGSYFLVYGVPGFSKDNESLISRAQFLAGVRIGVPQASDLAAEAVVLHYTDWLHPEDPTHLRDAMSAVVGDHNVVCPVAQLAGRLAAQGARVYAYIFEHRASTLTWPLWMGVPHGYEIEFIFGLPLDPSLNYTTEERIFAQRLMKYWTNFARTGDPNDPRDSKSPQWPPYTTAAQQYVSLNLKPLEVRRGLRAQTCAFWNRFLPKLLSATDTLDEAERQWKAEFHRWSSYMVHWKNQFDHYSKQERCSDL
The data set is described as follows: Acetylcholinesterase (AChE) assay in brain (in vitro), Ellman method. In kind it is biochemical, Swiss albino mice. The settings on record: for inhibition at 10 µM / inhibition at 100 µM: read-out: % Inhibition of AChE enzyme; for AChE inhibitory activity compared to rivastigmine: comparison with rivastigmine. As to the method: Acetylcholinesterase (AChE) Assay in Brain (In Vitro)
The mice were perfused under mild ether anesthesia through heart with ice cooled normal saline (0.9% NaCl) to remove blood-born cholinesterase from the brain. After perfusion the whole brain was taken out. A 10% (w/v) homogenate of brain was prepared first by homogenizing in an Ultra-Turrax T25 homogenizer at a speed of 9500 rpm thrice giving intervals for few seconds in between the runs, with sodium phosphate buffer (0.03 M, pH-7)).
The brain homogenate in volume of 500 μl was mixed with 1% Triton X-100 (1% w/v in 0.03M sodium phosphate buffer, pH-7) and centrifuged at 100,000 g at 4° C. in a Beckman Ultracentrifuge (LE 80, USA), using a fixed angle rotor (80 ti) for 60 min. Supernatant was collected and stored at 4° C. for acetylcholinesterase estimation.
The assay for each sample was run in triplicate and each experiment was performed twice.
The specific activity of AChE is expressed in μM/min/mg of protein.
The test substance (dissolved in ethanol) was incubated with enzyme source in different concentrations ([…]) for 30 min at 37° C. prior to obtain kinetic profile of AChE activity. […] The AChE inhibitory activity was calculated on the basis of % decrease in AChE activity from control values i.e. AChE activity without incubation with any standard or test drug.
The results are expressed as mean±S.E.M. Statistical analysis of passive avoidance values were performed by t-test. The IC50 value was calculated by non linear regression method using GraphPad Prism software.
Background: In Ellman's method for cholinesterases, released thiocholine reacts with DTNB.

Data set [2] has as its system scopolamine induced amnesia in mice. Description: Passive avoidance test, scopolamine induced amnesia (in vivo). Also on record: species or system Swiss albino male mice. The note with it: oral 3.75, 7.5 and 15 mg/kg 1 hr prior to 1st trial, scopolamine 3 mg/kg IP, FIG. 3. The method, then:
Passive avoidance test is widely used as experimental model to assess learning and memory functions in rodents. Scopolamine induced impairment in passive avoidance (in vivo) and inhibition of acetylcholinesterase (in vitro) in rodents are commonly employed screening tests to predict potential of a compound as acetylcholinesterase inhibitor and anti-amnesic drug (Das et al., 2002).
[…]. Mice were kept in standard housing condition with 12 h light and dark cycle. The food and water were available ad libitum.
The passive avoidance test was carried out as described by Tota et al., 2009. The mice were subjected to the passive avoidance test by placing in a compartment with light at intensity of 8 [Scale from 0 to 10 (brightest)] in a computerized shuttle box with a software programme PACS 30 (Columbus Instruments, Ohio, USA).
The light compartment was isolated from the dark compartment by an automated guillotine door. After an acclimatization period of 30 s, the guillotine door was opened and closed automatically after entry of the mouse into the dark compartment. The subject received a low-intensity foot shock (0.5 mA; 10 s) in the dark compartment. Infrared sensors monitored the transfer of the animal from one compartment to another which was recorded as transfer latency time (TLT) in seconds. […]

`Nc1c2c(nc3ccccc13)CCCC2` [Tacrine]: in the data set on Swiss albino male mice (5 mg/kg dose), the tolerability entry is “well tolerated at 5 mg/kg dose”.

As a reminder, the mortality is the share of the test organisms that died. Consider `CCN(C)C(=O)Oc1cccc([C@H](C)N(C)C)c1` [Rivastigmine], for which, in the data set on Swiss albino male mice (1 mg/kg), the overall locomotor activity result is “locomotor activity was normal as control group” and the “peripheral cholinergic symptoms / tolerability” value was 1 mg/kg: No peripheral cholinergic symptoms. Overall. Besides, in the data set with Swiss albino male mice (2 mg/kg), the “duration of symptom phase” value lay within 25 to 30 min, the “onset of symptoms after dosing” value is 2 mg/kg: 5-10 min after dosing animals become and the “recovery to normal after dosing” value was “animals become normal one hr after”. In the data set on Swiss albino male mice (4 mg/kg), the “time gap between cholinergic side effect and death” value is reported as “administration. There was no detectable time gap”. In the data set with Swiss albino male mice (4 mg/kg oral), the mortality was 100% and the “time to mortality after drug administration” value is recorded as ≤ 15 min. Also, the peripheral side effects result in the data set on Swiss albino male mice (oral dose of 3 mg/kg) was “some peripheral side effects”.

A word on the IC50: it is the midpoint of a concentration-inhibition curve. Low readings indicate inhibition by little substance, high ones a need for much substance. By inhibition is commonly meant how much of the control response was suppressed. In the case of `C#CCN1CCCc2ccc(OC(=O)NCCCCCCC)cc21` [Compound 10b, 1-(prop-2-ynyl)-1,2,3,4-tetrahydroquinolin-7-yl heptylcarbamate], in data set [1], the midpoint of inhibition, the IC50, lay at 7.59 ± 0.62 µM; the inhibition at 10 µM amounted to 55.5%; the inhibition at 100 µM was found to be 77.2%. In data set [1] (fold lower than Rivastigmine), the “AChE inhibitory activity, fold lower compared to the drug Rivastigmine” value is 7 fold. Besides, in the data set with Swiss albino male mice (125 mg/kg oral dose), the tolerability result is “Well tolerated” and the “cholinergic symptoms / side effects” value was “No cholinergic symp-”.

As for `COc1cc2c(cc1OC)C(=O)C(CC1CCN(Cc3ccccc3)CC1)C2` (stereo not drawn) [Donepezil], the tolerability result in the data set on Swiss albino male mice (5 mg/kg dose) is “well tolerated”. In the data set with Swiss albino male mice, the cholinergic symptoms entry is recorded as “Moderate cholinergic”; the side effects entry was “severe side effects were found initially and all”. In addition, in the data set with Swiss albino male mice (listed as donepezil), the cholinergic symptoms entry is “moderate cholinergic symptoms” and the side effects result is reported as “severe side effects were found initially”.

`C#CCN1CCCc2ccc(OC(=O)Nc3ccccc3OC)cc21` [Compound 10e, 1-(prop-2-ynyl)-1,2,3,4-tetrahydroquinolin-7-yl 2-methoxyphenylcarbamate]: in data set [1], the IC50 is 0.92 ± 0.12 µM, the “AChE inhibitory activity compared to rivastigmine” value is recorded as “slightly better”, the inhibition at 10 µM amounted to 95.4% and the inhibition at 100 µM was found to be 96.3%. Also, in the data set with Swiss albino male mice (125 mg/kg oral dose), the tolerability result is “Well tolerated” and the “cholinergic symptoms / side effects” value is “No cholinergic symp-”.

As to `CN(C)C(=O)Oc1ccc2c(c1)N(Cc1ccccc1)CCC2` [Compound 8k, 1-benzyl-1,2,3,4-tetrahydroquinolin-7-yl dimethylcarbamate], the “improvement in learning (transfer latency time, passive avoidance)” value in data set [2] is “shown potential towards the improvement in learning of mice and almost comparable to the drug Rivastigmine and Tacrine”. For the same compound, in data set [1], half-maximal inhibition (IC50) required 0.099 ± 0.003 µM, the inhibition at 10 µM came out at 95.5% and the inhibition at 100 µM is 98%. The “AChE inhibitory activity compared to Tacrine” value in data set [1] (comparison with Tacrine) is listed as “almost equal or even slightly better”. The “AChE inhibitory activity, fold better compared to the drug rivastigmine” value in data set [1] (fold better than rivastigmine) is 12 fold and 10 fold. In addition, in the data set with Swiss albino male mice (125 mg/kg oral dose, 125 mg/kg), the tolerability result is “Well tolerated”; the “cholinergic symptoms / side effects” value was “no cholinergic symptoms and mortality was observed; also recorded: free from any observable side peripheral side effect; also recorded: No cholinergic symp-”.

Regarding `C#CCN1CCCc2ccc(OC(=O)Nc3ccccc3C)cc21` [Compound 10a, 1-(prop-2-ynyl)-1,2,3,4-tetrahydroquinolin-7-yl 2-methylphenylcarbamate], in data set [1], the IC50 came to 13.3 ± 3.33 µM, the inhibition at 10 µM was found to be 52.5% and the inhibition at 100 µM was 60.8%.

In the case of `O=C(Nc1ccc(F)cc1)Oc1ccc2c(c1)N(Cc1ccccc1)CCC2` [Compound 8d, 1-benzyl-1,2,3,4-tetrahydroquinolin-7-yl 4-fluorophenylcarbamate], in data set [1], the IC50 is > 100 µM, the inhibition at 10 µM stood at 5.23% and the inhibition at 100 µM is 15.5%.

For the compound `C#CCN1CCCc2ccc(OC(=O)N(C)C)cc21` [Compound 10g, 1-(prop-2-ynyl)-1,2,3,4-tetrahydroquinolin-7-yl dimethylcarbamate], in data set [1], the IC50 was determined as 0.68 ± 0.02 µM, the “AChE inhibitory activity compared to rivastigmine” value is reported as “slightly better”, the inhibition at 10 µM came to 94.2% and the inhibition at 100 µM worked out at 96.5%.

For `O=C(Nc1ccc(F)cc1)Oc1ccc2c(c1)NCCC2` [Compound 9c, 1,2,3,4-tetrahydroquinolin-7-yl 4-fluorophenylcarbamate], in data set [1], half-maximal inhibition (IC50) required 327 ± 15.9 µM, the inhibition at 10 µM was 1.15% and the inhibition at 100 µM worked out at 21.6%.

`CCCCCCCNC(=O)Oc1ccc2c(c1)N(Cc1ccccc1)CCC2` [Compound 8h, 1-benzyl-1,2,3,4-tetrahydroquinolin-7-yl heptylcarbamate]: in data set [1], the IC50 was > 100 µM, the inhibition at 10 µM was found to be 5.2% and the inhibition at 100 µM was 10.1%.
